Experimental data taken from PubChem BioAssay AID2060627 (Molecular Pharmacology Branch, DTP, NCI, 2025).
“And” between values parts separate entries of the source, which are not always exact repeats. Equal values may be shown once.

System: 156681-154-R-J1-PDC complex spheroid viability
Assay: Anticancer human tumor 156681-154-R-J1-PDC patient-derived melanoma cell line growth inhibition [CLK]
Conditions: for viability, T/C: stronger effect = lower value
How it was run: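 Multi-cell-type spheroids combined patient-derived tumor cells with HUVEC endothelial cells and human mesenchymal stem cells. Paired agents were dosed in half-log steps down from about clinical Cmax, or from 10 microM where Cmax was unknown.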

[1] = curve of first compound, second compound 0.0316 µM
[2] = curve of first compound, second compound 0.1 µM
[3] = curve of first compound, second compound 0.316 µM
[4] = curve of first compound, second compound 1 µM
[5] = curve of first compound, second compound 3.16 µM
[6] = curve of first compound, second compound 10 µM
[7] = second compound 0.0316 µM, first compound 0.0316 µM
[8] = second compound 0.0316 µM, first compound 0.1 µM
[9] = second compound 0.0316 µM, first compound 0.316 µM
[10] = second compound 0.0316 µM, first compound 1 µM
[11] = second compound 0.0316 µM, first compound 3.16 µM
[12] = second compound 0.0316 µM, first compound 10 µM
[13] = second compound 0.1 µM, first compound 0.0316 µM
[14] = second compound 0.1 µM, first compound 0.1 µM
[15] = second compound 0.1 µM, first compound 0.316 µM
[16] = second compound 0.1 µM, first compound 1 µM
[17] = second compound 0.1 µM, first compound 3.16 µM
[18] = second compound 0.1 µM, first compound 10 µM
[19] = second compound 0.316 µM, first compound 0.0316 µM
[20] = second compound 0.316 µM, first compound 0.1 µM
[21] = second compound 0.316 µM, first compound 0.316 µM
[22] = second compound 0.316 µM, first compound 1 µM
[23] = second compound 0.316 µM, first compound 3.16 µM
[24] = second compound 0.316 µM, first compound 10 µM
[25] = second compound 1 µM, first compound 0.0316 µM
[26] = second compound 1 µM, first compound 0.1 µM
[27] = second compound 1 µM, first compound 0.316 µM
[28] = second compound 1 µM, first compound 1 µM
[29] = second compound 1 µM, first compound 3.16 µM
[30] = second compound 1 µM, first compound 10 µM
[31] = second compound 3.16 µM, first compound 0.0316 µM
[32] = second compound 3.16 µM, first compound 0.1 µM
[33] = second compound 3.16 µM, first compound 0.316 µM
[34] = second compound 3.16 µM, first compound 1 µM
[35] = second compound 3.16 µM, first compound 3.16 µM
[36] = second compound 3.16 µM, first compound 10 µM
[37] = second compound 10 µM, first compound 0.0316 µM
[38] = second compound 10 µM, first compound 0.1 µM
[39] = second compound 10 µM, first compound 0.316 µM
[40] = second compound 10 µM, first compound 1 µM
[41] = second compound 10 µM, first compound 3.16 µM
[42] = second compound 10 µM, first compound 10 µM
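Also: spheroids exposed to the agents for seven days.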
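For viability, T/C in this document: 100% = DMSO vehicle control viability.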

What does the source list for `COc1cccc2c1C(=O)c1c(O)c3c(c(O)c1C2=O)CC(O)(C(=O)CO)CC3OC1CC(N)C(O)C(C)O1` (configuration not stated) + CNC(=O)c1ccc(Nc2nc(OC3CCCC3)c3c(-c4ccc5nc(C)oc5c4)c[nH]c3n2)c(OC)c1?
IC50 [1]: < 31.6 nM; IC50 [2]: < 31.6 nM; IC50 [3]: < 31.6 nM; IC50 [4]: < 31.6 nM; IC50 [5]: < 31.6 nM; IC50 [6]: < 31.6 nM; viability, T/C [7]: 28.9%; viability, T/C [8]: 20.6%; viability, T/C [9]: 2.62%; viability, T/C [10]: 0.17%; viability, T/C [11]: 0.29%; viability, T/C [12]: 2.75%; viability, T/C [13]: 27.2%; viability, T/C [14]: 20%; viability, T/C [15]: 3.42%; viability, T/C [16]: 0.17%; viability, T/C [17]: 0.11%; viability, T/C [18]: 0.1%; viability, T/C [19]: 30.7%; viability, T/C [20]: 18.2%; viability, T/C [21]: 2.21%; viability, T/C [22]: 0.13%; viability, T/C [23]: 0.1%; viability, T/C [24]: 0.32%; viability, T/C [25]: 18.9%; viability, T/C [26]: 9.29%; viability, T/C [27]: 1.41%; viability, T/C [28]: 0.1%; viability, T/C [29]: 1.2%; viability, T/C [30]: 1.16%; viability, T/C [31]: 17.6%; viability, T/C [32]: 6.96%; viability, T/C [33]: 0.58%; viability, T/C [34]: 0.12%; viability, T/C [35]: 0.1%; viability, T/C [36]: 0.08%; viability, T/C [37]: 16.3%; viability, T/C [38]: 6.19%; viability, T/C [39]: 2.01%; viability, T/C [40]: 0.71%; viability, T/C [41]: 0.12%; viability, T/C [42]: 0.11%

What does the source list for `C#Cc1c(F)ccc2cc(O)cc(-c3ncc4c(N5CC6CCC(C5)N6)nc(OCC56CCCN5CC(F)C6)nc4c3F)c12` (configuration not stated)?
viability, T/C (compound 0.0316 µM): 110% and 91.8%; viability, T/C (compound 0.1 µM): 86.9% and 94%; viability, T/C (compound 0.316 µM): 79.3% and 89.4%; viability, T/C (compound 1 µM): 89.2% and 83.5%; viability, T/C (compound 3.16 µM): 109% and 96.9%; viability, T/C (compound 10 µM): 99.2% and 101%; IC50 (curve of compound): > 10000 nM

What does the source list for `Nc1ccccc1NC(=O)c1ccc(CNC(=O)OCc2cccnc2)cc1` + CNC(=O)c1ccc(Nc2nc(OC3CCCC3)c3c(-c4ccc5nc(C)oc5c4)c[nH]c3n2)c(OC)c1?
IC50 [1]: 572 nM; IC50 [2]: 293 nM; IC50 [3]: 337 nM; IC50 [4]: 141 nM; IC50 [5]: 67.6 nM; IC50 [6]: 50.7 nM; viability, T/C [7]: 115%; viability, T/C [8]: 91.2%; viability, T/C [9]: 64.9%; viability, T/C [10]: 42%; viability, T/C [11]: 3.29%; viability, T/C [12]: 1.7%; viability, T/C [13]: 70%; viability, T/C [14]: 66.3%; viability, T/C [15]: 45.7%; viability, T/C [16]: 30.2%; viability, T/C [17]: 3.46%; viability, T/C [18]: 5.63%; viability, T/C [19]: 58.1%; viability, T/C [20]: 59.4%; viability, T/C [21]: 46%; viability, T/C [22]: 34.6%; viability, T/C [23]: 4.74%; viability, T/C [24]: 8.02%; viability, T/C [25]: 64.6%; viability, T/C [26]: 50.3%; viability, T/C [27]: 41.3%; viability, T/C [28]: 28.1%; viability, T/C [29]: 4.08%; viability, T/C [30]: 0.99%; viability, T/C [31]: 49.8%; viability, T/C [32]: 53.3%; viability, T/C [33]: 35.8%; viability, T/C [34]: 23.8%; viability, T/C [35]: 3.27%; viability, T/C [36]: 0.11%; viability, T/C [37]: 57.1%; viability, T/C [38]: 38.4%; viability, T/C [39]: 29.6%; viability, T/C [40]: 22.6%; viability, T/C [41]: 2.77%; viability, T/C [42]: 0.3%

What does the source list for `CC1(C)CCC(CN2CCN(c3ccc(C(=O)NS(=O)(=O)c4ccc(NCC5CCOCC5)c([N+](=O)[O-])c4)c(Oc4cnc5[nH]ccc5c4)c3)CC2)=C(c2ccc(Cl)cc2)C1` + CN1CCN(c2cc(C(=O)Nc3cc4cc(-c5cnn(C)c5)ccc4cn3)ccn2)CC1?
IC50 [1]: 4990 nM; IC50 [2]: 4370 nM; IC50 [3]: < 31.6 nM; IC50 [4]: < 31.6 nM; IC50 [5]: < 31.6 nM; IC50 [6]: < 31.6 nM; viability, T/C [7]: 99.7%; viability, T/C [8]: 116%; viability, T/C [9]: 90.8%; viability, T/C [10]: 103%; viability, T/C [11]: 81.6%; viability, T/C [12]: 1.68%; viability, T/C [13]: 97.8%; viability, T/C [14]: 83.3%; viability, T/C [15]: 86%; viability, T/C [16]: 88.8%; viability, T/C [17]: 69.2%; viability, T/C [18]: 0.79%; viability, T/C [19]: 18.2%; viability, T/C [20]: 19.7%; viability, T/C [21]: 24.4%; viability, T/C [22]: 17.9%; viability, T/C [23]: 8.72%; viability, T/C [24]: 0.28%; viability, T/C [25]: 0.22%; viability, T/C [26]: 0.91%; viability, T/C [27]: 0.19%; viability, T/C [28]: 0.18%; viability, T/C [29]: 2.05%; viability, T/C [30]: 0.07%; viability, T/C [31]: 2.04%; viability, T/C [32]: 0.47%; viability, T/C [33]: 0.27%; viability, T/C [34]: 0.09%; viability, T/C [35]: 3.38%; viability, T/C [36]: 0.4%; viability, T/C [37]: 0.1%; viability, T/C [38]: 3.06%; viability, T/C [39]: 2.9%; viability, T/C [40]: 0.17%; viability, T/C [41]: 0.91%; viability, T/C [42]: 0.56%

`O=c1[nH]cc(F)c(=O)[nH]1` was tested. Which viability, T/C (compound 0.0316 µM) did it give?
Its viability, T/C is 72.7% and 87.1%.

And the viability, T/C (compound 0.1 µM)?
The viability, T/C was 85.4% and 88.9%.

What about the viability, T/C (compound 0.316 µM) of the same molecule?
Its viability, T/C is 84.8% and 79.8%.

And the viability, T/C (compound 1 µM)?
Its viability, T/C is 91% and 90.6%.

What about the viability, T/C (compound 3.16 µM) of the same molecule?
The viability, T/C was 81.6% and 80.6%.

What about the viability, T/C (compound 10 µM) of the same molecule?
Its viability, T/C is 34% and 35.9%.

What about the IC50 (curve of compound) of the same molecule?
The IC50 was 6800 nM and 7000 nM.

`CCN1CCN(Cc2ccc(Nc3ncc(F)c(-c4cc(F)c5nc(C)n(C(C)C)c5c4)n3)nc2)CC1` was tested. Which viability, T/C (compound 0.00316 µM) did it give?
Its viability, T/C is 82.6% and 81.5%.

And the viability, T/C (compound 0.01 µM)?
The viability, T/C was 82.6% and 92.4%.

What about the viability, T/C (compound 0.0316 µM) of the same molecule?
Its viability, T/C is 83.9% and 84.2%.

What about the viability, T/C (compound 0.1 µM) of the same molecule?
The viability, T/C was 69.7% and 84.1%.

And the viability, T/C (compound 0.316 µM)?
Its viability, T/C is 66.8% and 75.8%.

And the viability, T/C (compound 1 µM)?
Its viability, T/C is 50.5% and 56.2%.

And the IC50 (curve of compound)?
Its IC50 is over 1000 nM.
